In PubChem BioAssay AID1259407 (Chemical Carcinogenesis Research Information System (CCRIS), 2018):
Activity calls are given as the source filed them. How the calls were made is not given here.

System: CCRIS mutagenicity, Ames/micronucleus/aberration tests
Assay: CCRIS mutagenicity studies
[1] = Test System: AMES SALMONELLA TYPHIMURIUM, Strain/Indicator: TA97, Metabolic Activation: HAMSTER, LIVER, S-9, AROCLOR 1254 (10%), Method: PREINCUBATION
[2] = Test System: AMES SALMONELLA TYPHIMURIUM, Strain/Indicator: TA97, Metabolic Activation: HAMSTER, LIVER, S-9, AROCLOR 1254 (30%), Method: PREINCUBATION
[3] = Test System: AMES SALMONELLA TYPHIMURIUM, Strain/Indicator: TA97, Metabolic Activation: NONE, Method: PREINCUBATION
[4] = Test System: AMES SALMONELLA TYPHIMURIUM, Strain/Indicator: TA98, Metabolic Activation: HAMSTER, LIVER, S-9, AROCLOR 1254 (10%), Method: PREINCUBATION
[5] = Test System: AMES SALMONELLA TYPHIMURIUM, Strain/Indicator: TA98, Metabolic Activation: HAMSTER, LIVER, S-9, AROCLOR 1254 (30%), Method: PREINCUBATION
[6] = Test System: AMES SALMONELLA TYPHIMURIUM, Strain/Indicator: TA98, Metabolic Activation: NONE, Method: PREINCUBATION
[7] = Test System: AMES SALMONELLA TYPHIMURIUM, Strain/Indicator: TA98, Metabolic Activation: RAT, LIVER, S-9, AROCLOR 1254 (10%), Method: PREINCUBATION
[8] = Test System: AMES SALMONELLA TYPHIMURIUM, Strain/Indicator: TA98, Metabolic Activation: RAT, LIVER, S-9, AROCLOR 1254 (30%), Method: PREINCUBATION
[9] = Test System: AMES SALMONELLA TYPHIMURIUM, Strain/Indicator: TA100, Metabolic Activation: HAMSTER, LIVER, S-9, AROCLOR 1254 (10%), Method: PREINCUBATION
[10] = Test System: AMES SALMONELLA TYPHIMURIUM, Strain/Indicator: TA100, Metabolic Activation: HAMSTER, LIVER, S-9, AROCLOR 1254 (30%), Method: PREINCUBATION
[11] = Test System: AMES SALMONELLA TYPHIMURIUM, Strain/Indicator: TA100, Metabolic Activation: NONE, Method: PREINCUBATION
[12] = Test System: AMES SALMONELLA TYPHIMURIUM, Strain/Indicator: TA100, Metabolic Activation: RAT, LIVER, S-9, AROCLOR 1254 (10%), Method: PREINCUBATION
[13] = Test System: AMES SALMONELLA TYPHIMURIUM, Strain/Indicator: TA100, Metabolic Activation: RAT, LIVER, S-9, AROCLOR 1254 (30%), Method: PREINCUBATION
[14] = Test System: AMES SALMONELLA TYPHIMURIUM, Strain/Indicator: TA1535, Metabolic Activation: HAMSTER, LIVER, S-9, AROCLOR 1254 (10%), Method: PREINCUBATION
[15] = Test System: AMES SALMONELLA TYPHIMURIUM, Strain/Indicator: TA1535, Metabolic Activation: HAMSTER, LIVER, S-9, AROCLOR 1254 (30%), Method: PREINCUBATION
[16] = Test System: AMES SALMONELLA TYPHIMURIUM, Strain/Indicator: TA1535, Metabolic Activation: NONE, Method: PREINCUBATION
[17] = Test System: AMES SALMONELLA TYPHIMURIUM, Strain/Indicator: TA1535, Metabolic Activation: RAT, LIVER, S-9, AROCLOR 1254 (10%), Method: PREINCUBATION
[18] = Test System: AMES SALMONELLA TYPHIMURIUM, Strain/Indicator: TA1535, Metabolic Activation: RAT, LIVER, S-9, AROCLOR 1254 (30%), Method: PREINCUBATION
[19] = Test System: AMES SALMONELLA TYPHIMURIUM, Strain/Indicator: TA97, Metabolic Activation: RAT, LIVER, S-9, AROCLOR 1254 (10%), Method: PREINCUBATION
[20] = Test System: AMES SALMONELLA TYPHIMURIUM, Strain/Indicator: TA97, Metabolic Activation: RAT, LIVER, S-9, AROCLOR 1254 (30%), Method: PREINCUBATION

Measured: mutagenic call

N#CCO
inactive: [1] inactive; negative | [2] inactive; negative | [3] inactive; negative | Test System: AMES SALMONELLA TYPHIMURIUM, Strain/Indicator: TA97, Metabolic Activation: RAT, LIVER, S-9, AROCLOR 1254 (10 OR 30%), Method: PREINCUBATION inactive; negative | [4] inactive; negative | [5] inactive; negative | [6] inactive; negative | [7] inactive; negative | [8] inactive; negative | [9] inactive; negative | [10] inactive; negative | [11] inactive; negative | [12] inactive; negative | [13] inactive; negative | [14] inactive; negative | [15] inactive; negative | [16] inactive; negative | [17] inactive; negative | [18] inactive; negative

O=P([O-])([O-])OC(CCO)CCO.O=P([O-])([O-])OCC(O)CO.[Mn+2].[Mn+2]
inactive: Test System: AMES SALMONELLA TYPHIMURIUM, Strain/Indicator: TA98, Metabolic Activation: NONE, Method: STANDARD PLATE inactive; negative | Test System: AMES SALMONELLA TYPHIMURIUM, Strain/Indicator: TA98, Metabolic Activation: RAT, LIVER, S-9, AROCLOR 1254, Method: STANDARD PLATE inactive; negative | Test System: AMES SALMONELLA TYPHIMURIUM, Strain/Indicator: TA100, Metabolic Activation: NONE, Method: STANDARD PLATE inactive; negative | Test System: AMES SALMONELLA TYPHIMURIUM, Strain/Indicator: TA100, Metabolic Activation: RAT, LIVER, S-9, AROCLOR 1254, Method: STANDARD PLATE inactive; negative | Test System: AMES SALMONELLA TYPHIMURIUM, Strain/Indicator: TA1535, Metabolic Activation: NONE, Method: STANDARD PLATE inactive; negative | Test System: AMES SALMONELLA TYPHIMURIUM, Strain/Indicator: TA1535, Metabolic Activation: RAT, LIVER, S-9, AROCLOR 1254, Method: STANDARD PLATE inactive; negative | Test System: AMES SALMONELLA TYPHIMURIUM, Strain/Indicator: TA1537, Metabolic Activation: NONE, Method: STANDARD PLATE inactive; negative | Test System: AMES SALMONELLA TYPHIMURIUM, Strain/Indicator: TA1537, Metabolic Activation: RAT, LIVER, S-9, AROCLOR 1254, Method: STANDARD PLATE inactive; negative | Test System: AMES SALMONELLA TYPHIMURIUM, Strain/Indicator: TA1538, Metabolic Activation: NONE, Method: STANDARD PLATE inactive; negative | Test System: AMES SALMONELLA TYPHIMURIUM, Strain/Indicator: TA1538, Metabolic Activation: RAT, LIVER, S-9, AROCLOR 1254, Method: STANDARD PLATE inactive; negative | Test System: E. COLI, Strain/Indicator: WP2, Metabolic Activation: NONE, Method: STANDARD PLATE inactive; negative | Test System: E. COLI, Strain/Indicator: WP2, Metabolic Activation: RAT, LIVER, S-9, AROCLOR 1254, Method: STANDARD PLATE inactive; negative

Nc1ccccc1S(=O)(=O)O
inactive: Test System: AMES SALMONELLA TYPHIMURIUM, Strain/Indicator: TA97, Metabolic Activation: HAMSTER, LIVER, S-9, AROCLOR 1254 (10 OR 30%), Method: PREINCUBATION inactive; negative | [3] inactive; negative | [19] inactive; negative | [20] inactive; negative | Test System: AMES SALMONELLA TYPHIMURIUM, Strain/Indicator: TA98, Metabolic Activation: HAMSTER, LIVER, S-9, AROCLOR 1254 (10 OR 30%), Method: PREINCUBATION inactive; negative | Test System: AMES SALMONELLA TYPHIMURIUM, Strain/Indicator: TA98, Metabolic Activation: RAT, LIVER, S-9, AROCLOR 1254 (10 OR 30%), Method: PREINCUBATION inactive; negative | Test System: AMES SALMONELLA TYPHIMURIUM, Strain/Indicator: TA100, Metabolic Activation: HAMSTER, LIVER, S-9, AROCLOR 1254 (10 OR 30%), Method: PREINCUBATION inactive; negative | [11] inactive; negative | Test System: AMES SALMONELLA TYPHIMURIUM, Strain/Indicator: TA100, Metabolic Activation: RAT, LIVER, S-9, AROCLOR 1254 (10 OR 30%), Method: PREINCUBATION inactive; negative | Test System: AMES SALMONELLA TYPHIMURIUM, Strain/Indicator: TA1535, Metabolic Activation: HAMSTER, LIVER, S-9, AROCLOR 1254 (10 OR 30%), Method: PREINCUBATION inactive; negative | [16] inactive; negative | Test System: AMES SALMONELLA TYPHIMURIUM, Strain/Indicator: TA1535, Metabolic Activation: RAT, LIVER, S-9, AROCLOR 1254 (10 OR 30%), Method: PREINCUBATION inactive; negative

O=C1c2ccccc2C(=O)C1(O)O
inactive: [1] inactive; negative | [2] inactive; negative | [3] inactive; negative | [19] inactive; negative | [20] inactive; negative | [4] inactive; negative | [5] inactive; negative | [6] inactive; negative | [7] inactive; negative | [8] inactive; negative | [9] inactive; negative | [10] inactive; negative | [11] inactive; negative | Test System: AMES SALMONELLA TYPHIMURIUM, Strain/Indicator: TA100, Metabolic Activation: RAT, LIVER, S-9, AROCLOR 1254 (5%), Method: PREINCUBATION inactive; negative | [12] inactive; negative | [13] inactive; negative | [14] inactive; negative | [15] inactive; negative | [16] inactive; negative | [17] inactive; negative | [18] inactive; negative | Test System: AMES SALMONELLA TYPHIMURIUM, Strain/Indicator: TA1537, Metabolic Activation: HAMSTER, LIVER, S-9, AROCLOR 1254 (10%), Method: PREINCUBATION inactive; negative | Test System: AMES SALMONELLA TYPHIMURIUM, Strain/Indicator: TA1537, Metabolic Activation: HAMSTER, LIVER, S-9, AROCLOR 1254 (30%), Method: PREINCUBATION inactive; negative | Test System: AMES SALMONELLA TYPHIMURIUM, Strain/Indicator: TA1537, Metabolic Activation: RAT, LIVER, S-9, AROCLOR 1254 (10%), Method: PREINCUBATION inactive; negative | Test System: AMES SALMONELLA TYPHIMURIUM, Strain/Indicator: TA1537, Metabolic Activation: RAT, LIVER, S-9, AROCLOR 1254 (30%), Method: PREINCUBATION inactive; negative
